Measured values as given in the supplement of paper PMC8960247.
± gives the standard error.

Key:
621-103 (TSC2-rescued) = assay: relative viability vs DMSO; higher = less cytotoxic; details: serum: 10% FBS, 72 h
621-102 (TSC2-deficient) [1] = assay: as above; details: serum: 10% FBS, 72 h
UMB1949 (TSC2-deficient) = assay: relative viability vs DMSO (fraction); higher = less cytotoxic; details: serum: 0.1% FBS, 72 h;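 note: renal angiomyolipoma cell lines screened in 384-well plates, viability normalized per plate to DMSO-treated cells, each plate carrying 50 nM rapamycin and 1 µM staurosporine controls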
621-102 (TSC2-deficient) [2] = assay: as above; details: serum: 0.1% FBS, 72 h

SMILES | relative viability (621-103 (TSC2-rescued); 0.0001 µM) | relative viability (621-103 (TSC2-rescued); 0.001 µM) | relative viability (621-103 (TSC2-rescued); 0.01 µM) | relative viability (621-103 (TSC2-rescued); 0.1 µM) | relative viability (621-103 (TSC2-rescued); 1 µM) | relative viability (621-103 (TSC2-rescued); 10 µM) | relative viability (621-102 (TSC2-deficient) [1]; 0.0001 µM) | relative viability (621-102 (TSC2-deficient) [1]; 0.001 µM) | relative viability (621-102 (TSC2-deficient) [1]; 0.01 µM) | relative viability (621-102 (TSC2-deficient) [1]; 0.1 µM) | relative viability (621-102 (TSC2-deficient) [1]; 1 µM) | relative viability (621-102 (TSC2-deficient) [1]; 10 µM) | relative viability (UMB1949 (TSC2-deficient); 0.0128 nM) | relative viability (UMB1949 (TSC2-deficient); 0.064 nM) | relative viability (UMB1949 (TSC2-deficient); 0.32 nM) | relative viability (UMB1949 (TSC2-deficient); 1.6 nM) | relative viability (UMB1949 (TSC2-deficient); 8 nM) | relative viability (UMB1949 (TSC2-deficient); 40 nM) | relative viability (UMB1949 (TSC2-deficient); 200 nM) | relative viability (UMB1949 (TSC2-deficient); 1000 nM) | relative viability (UMB1949 (TSC2-deficient); 5000 nM) | relative viability (621-102 (TSC2-deficient) [2]; 0.0128 nM) | relative viability (621-102 (TSC2-deficient) [2]; 0.064 nM) | relative viability (621-102 (TSC2-deficient) [2]; 0.32 nM) | relative viability (621-102 (TSC2-deficient) [2]; 1.6 nM) | relative viability (621-102 (TSC2-deficient) [2]; 8 nM) | relative viability (621-102 (TSC2-deficient) [2]; 40 nM) | relative viability (621-102 (TSC2-deficient) [2]; 200 nM) | relative viability (621-102 (TSC2-deficient) [2]; 1000 nM) | relative viability (621-102 (TSC2-deficient) [2]; 5000 nM)
CCc1cccc(CC)c1NC(=O)N1Cc2[nH]nc(NC(=O)c3ccc(N4CCN(C)CC4)cc3)c2C1 | 103 ± 1.6% | 101.9 ± 0.41% | 104.5 ± 0.47% | 103 ± 1.4% | 64.8 ± 1.1% | 17.8 ± 0.74% | 100 ± 7.8% | 86.5 ± 5.1% | 101 ± 3.2% | 91.7 ± 2.3% | 60.9 ± 2% | 30.4 ± 1.4% | 0.986 | 1.13 | 1.17 | 0.98 | 0.853 | 0.0445 | 0.00761 | 0.00148 | 0.000776 | 1.02 | 0.947 | 1.01 | 0.767 | 0.524 | 0.292 | 0.0956 | 0.0612 | 0.00895
Nc1nc(Cl)nc2c1ncn2[C@@H]1O[C@H](CO)[C@@H](O)[C@@H]1F [Clofarabine] | 107 ± 2.7% | 101.98 ± 0.033% | 102.7 ± 0.28% | 91.6 ± 3.6% | 47.38 ± 0.098% | 46.8 ± 2.5% | 114 ± 4.2% | 104.4 ± 0.4% | 103 ± 2.5% | 96.69 ± 0.62% | 49.3 ± 1.3% | 51.8 ± 2.4% | 1.06 | 0.989 | 1.02 | 1.05 | 1.05 | 0.404 | 0.00754 | 0.00286 | 0.00163 | 1.11 | 0.982 | 1.02 | 0.905 | 0.929 | 0.0836 | 0.0188 | 0.0106 | 0.00741
Cn1cncc1[C@@](N)(c1ccc(Cl)cc1)c1ccc2c(c1)c(-c1cccc(Cl)c1)cc(=O)n2C [Tipifarnib] | 95.09 ± 0.41% | 96 ± 1.6% | 98.8 ± 1.9% | 81.5 ± 3.5% | 75.86 ± 0.6% | 64.3 ± 0.85% | 99.6 ± 4.2% | 117 ± 2.7% | 93.9 ± 2.1% | 89.4 ± 1.5% | 76.4 ± 2.5% | 63.3 ± 1.7% | 0.938 | 0.909 | 0.836 | 0.961 | 0.974 | 0.798 | 0.525 | 0.25 | 0.0103 | 0.693 | 0.533 | 0.634 | 0.552 | 0.512 | 0.592 | 0.436 | 0.274 | 0.0644
